Values of other authors, collected in patent publication EP1543827A1, “EMULSION OF PERFLUORORGANIC COMPOUNDS EXHIBITING GAS-TRANSPORT PROPERTIES, A SURFACE-ACTIVE AGENT FOR SAID EMULSION AND METHOD FOR THE PRODUCTION THEREOF” (Obshestvo C Ogranichennoi Otvetstvennostiu Accent, priority 2002, dated 2004).

Conditions: in vivo

Which “period of PFOC semi-clearance out of the organism” value does the source give for `FC(F)(F)C1(F)C(F)(F)C(F)(F)C(F)(N2C(F)(F)C(F)(F)C(F)(F)C(F)(F)C2(F)F)C(F)(F)C1(F)F` (centres unmarked) [PMCP, perfluoro-n-methylcyclohexylpiperidine] here?
Its value is 65 days.

Which “period of PFOC semi-clearance out of the organism” value does the source give for perfluordecalin [PFD] here?
The value was 7 days.
